In US20070249545A1, “DIHYDROFOLATE REDUCTASE INHIBITION BY EPIGALLOCATECHIN GALLATE COMPOUNDS” (priority 2004, published 2007):
Like-named read-outs stand apart in the source and are kept apart here.

Legend:
[1] = biological target: T1, bovine liver DHFR (Bos taurus, UniProt P00376); assay: Kinetic analysis of inhibition of bovine liver DHFR; type: biochemical
T1 construct: from tissue; host or cells: bovine liver
T1 sequence (P00376 1-187): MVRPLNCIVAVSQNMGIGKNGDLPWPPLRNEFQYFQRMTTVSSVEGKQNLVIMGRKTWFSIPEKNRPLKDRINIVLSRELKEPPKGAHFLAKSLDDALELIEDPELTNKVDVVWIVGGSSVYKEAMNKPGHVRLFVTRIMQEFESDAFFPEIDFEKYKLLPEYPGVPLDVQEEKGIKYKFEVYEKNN
Protocol: The activity of DHFR was determined at 25° C. by following the decrease of NADPH and DHF by absorbance measurements at 340 nm (ε=11,800 M^−1 cm^−1) by using a Perkin-Elmer Lambda-2 spectrophotometer with cuvettes of 1.0 cm light-path.
Experiments were performed at pH 7.58 and 25° C. in a buffer containing 2-(N-morpholino)ethanesulfonic acid (MES, 25 mM), sodium acetate (25 mM), tris(hydroxymethyl)aminomethane (Tris 50 mM), and NaCl (100 mM). To prevent the oxidation of catechins, the reaction mixture contained 1 mM ascorbic acid. The pH of the reaction was measured before and after of the experiment. The assays were started by the addition of enzyme. In the absence of the enzyme, the rate of change of absorbance was negligible. […]
Progress curves for the slow, tight-binding inhibition of bovine liver DHFR by EGCG were determined by continuously monitoring the disappearance of NADPH and DHF after initiation of the reaction by the addition of 3.3 nM enzyme. Reaction mixtures contained buffer, NADPH (100 μM), DHF (20 μM) and EGCG. Assuming that the concentration of free inhibitor is not substantially altered by the formation of an enzyme-NADPH-inhibitor complex, the progress curve for the inhibition in the presence of saturating NADPH is described by Eqn. (1): P=vst+(v0−vs)(1−exp(−k′t))/k′
where vs, v0 and k′ represent the steady-state velocity, initial velocity and apparent first-order rate constant, respectively.
The values of k′ at different EGCG concentrations were obtained by non-linear regression analysis of the progress curves. KI and KI* denote the respective dissociation constants for the initial and equilibrium binding of inhibitors to the enzyme-NADPH complex (FIG. 5).

[2] = biological target: T2, recombinant human DHFR (rHDHFR) (Homo sapiens, UniProt P00374); assay: Inhibition of human DHFR by tea catechins; type: biochemical
T2 sequence (P00374 1-187): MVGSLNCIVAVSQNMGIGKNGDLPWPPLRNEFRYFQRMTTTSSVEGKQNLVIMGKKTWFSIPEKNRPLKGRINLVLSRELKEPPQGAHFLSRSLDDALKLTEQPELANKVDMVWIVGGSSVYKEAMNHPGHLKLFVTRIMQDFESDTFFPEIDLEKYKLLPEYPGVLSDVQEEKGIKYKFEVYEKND

[3] = biological target: S. maltophilia DHFR (Stenotrophomonas maltophilia, UniProt B2FPG1); type: biochemical; conditions: for Km: partially purified S. maltophilia DHFR, substrate
Chain of S. maltophilia DHFR (B2FPG1 entry or part of it): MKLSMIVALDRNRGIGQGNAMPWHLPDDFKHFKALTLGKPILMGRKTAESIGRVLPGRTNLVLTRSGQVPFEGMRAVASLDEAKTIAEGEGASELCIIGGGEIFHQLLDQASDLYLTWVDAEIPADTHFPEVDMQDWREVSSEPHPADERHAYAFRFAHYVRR
Protocol: For the DHFR extraction, S. maltophilia strain number 1, was inoculated onto fresh agar 24 h before using. Then, liquid medium was inoculated with the strain and these broth cultures were incubated at 37° C. and shaken at 100 cycles per min. Solid medium was MacConkey agar (Oxoid Ltd., Basingstoke, England). Liquid medium was Brilliant Green Bile 2% broth (Oxoid). Bacteria were grown to mid-log phase, harvested by centrifugation (1,600 rpm 30 min) and washed twice in 50 mM phosphate buffer (pH 7.0) followed each time by a new centrifugation (1,600 rpm 5 min). Cell lysis, centrifugation, and dialysis were carried out between 4 and 8° C. Fast protein liquid chromatography (FPLC) purification steps were performed at room temperature. […] After centrifugation at 36,000 rpm for 30 min to remove cell debris, the supernatant was filtered. This supernatant was brought to 40% saturation with solid ammonium sulfate under continuous stirring. After 1 h the solution was centrifuged at 35,000 rpm for 30 min and the pellet discarded. Additional ammonium sulfate was added to the clear supernatant to give 90% saturation and stirred for 1 h. After centrifugation, the precipitates were suspended in 2 ml of buffer B (10 mM potassium phosphate buffer, pH 7.4, 2 mM β-mercaptoethanol). Concentrated enzyme (2 ml samples) was loaded onto a […] gel-filtration column (Sephacryl S-75 16/60 Hi-Prep, Amersham Pharmacia Biotech Europe GmbH, Barcelona, Spain), equilibrated with buffer B and eluted at 0.5 ml/min. The active fractions were concentrated and stored at −80° C. until used.
Initial velocity inhibition experiments were carried out for the inhibition studies of S. maltophilia with TMP and EGCG. One substrate (NADPH) was held constant at saturating concentration while the other substrate (DHF) and the inhibitor (TMP or EGCG) were varied. To prevent the oxidation of EGCG the reaction mixture contained 1 mM N-acetylcysteine (Sigma). For MTX inhibition the slow development of […] inhibition was determined by continuously monitoring the disappearance of NADPH and DHF after initiation of the reaction by the addition of DHFR. Reaction mixtures contained buffer, NADPH (100 μM), DHF (20 μM), and various concentrations of MTX. The extent of recovery of enzymatic activity following inhibition induced by preincubation with DHFR inhibitors was determined as follows. DHFR was preincubated for 30 min at 25° C. in the buffer mixture containing MTX, TMP or EGCG. An aliquot of the incubation mixture was then diluted 500-fold into a reaction mixture containing buffer mixture, NADPH (100 μM), and DHF (20 μM). Recovery of enzyme activity was followed by continuous monitoring at 340 nm.
Provided that the concentration of free inhibitor is not substantially altered by the formation of an enzyme-NADPH-inhibitor complex, the progress curve for the inhibition in the presence of saturating NADPH can be described by Eqn. 1 (as above): P=vst+(v0−vs)(1−exp(−kobst))/kobs • where vs, v0 and kobs represent the steady-state velocity, initial velocity and apparent first-order rate constant, respectively. The apparent first-order rate constant is related to the inhibitor concentration by Eqn. 2, where Ki denotes the dissociation constants for the initial binding of MTX to the enzyme-NADPH complex. [formula]

[4] = system: L1210 cells; assay: EGCG cytotoxicity / growth of L1210 cells; type: cell-based, mouse; conditions: L1210; hypoxanthine-thymidine (HT) medium; EGCG 20 μM
Protocol: L1210 cells were plated at a density of 10,000 cells/ml in 96-well plates with a “standard folate” RPMI 1640 medium supplemented with 10% FCS. Reversion experiments were carried out in an HT medium and/or by adding 50 μM ascorbic acid (AA). Cell injury was evaluated by a calorimetric assay for mitochondrial function using the MTT test.^29
The effect of different EGCG concentrations on L1210 cell growth after 29 h of treatment at two different folic acid concentrations was determined. The cells were previously adapted over a period of 2-3 days to grow in folate-free RPMI 1640 medium supplemented with 10% dialyzed FCS and 2 mM glutamine. This medium is subsequently referred to as LF (low folate). For the cytotoxicity assay, the cells were grown in LF media supplemented with folic acid (3 μM or 300 nM). Treatments were carried out in triplicate, and each experiment performed at least twice. Cell growth was determined by two different methods, Coulter counter Z2 and hemocytometer (FIG. 7). IC50 values were determined at each folic acid concentration added to the medium.
The growth-inhibitory effects of 10 μM EGCG at various folic acid concentrations were determined at two different time intervals. L1210 cells were cultured in a LF medium supplemented with the corresponding folic acid concentration. The data were obtained by using a Coulter counter and hemocytometer and expressed assuming a zero percentage of growth inhibition for untreated control (FIG. 8). Cells were maintained in the corresponding medium with 100 μg/ml of penicillin and streptomycin at 37° C. in a humid 7.5% CO2, […] environment for all the experiments.

[5] = system: p16; assay: p16 methylation status in Caco-2 cells; conditions: EGCG 20 μM, 7-days treatment

Which “inhibition of DHFR activity” value [1] does the source give for `Oc1cc(O)c2c(c1)O[C@H](c1cc(O)c(O)c(O)c1)[C@H](O)C2` [EGC, (−)-epigallocatechin, reference compound] here?
Its value is “did not inhibit”.

What about the “inhibition of rHDHFR activity” value [2] of the same molecule?
The value was “did not inhibit”.

Which Km ([3]; pH 8.0) does the source give for `NC(=O)C1=CN([C@@H]2O[C@H](COP(=O)(O)OP(=O)(O)OC[C@H]3O[C@@H](n4cnc5c(N)ncnc54)[C@H](OP(=O)(O)O)[C@@H]3O)[C@@H](O)[C@H]2O)C=CC1` [NADPH] here?
Its Km is 12 µM.

Which results are given for `COc1cc(Cc2cnc(N)nc2N)cc(OC)c1OC` [trimethoprim]?
Ki [3]: 4690 nM; Type of inhibition observed [3]: competitive (reversible); effect of preincubation of the enzyme with inhibitor [3]: did not produce any measurable inhibition

Which results are given for `CN(Cc1cnc2nc(N)nc(N)c2n1)c1ccc(C(=O)N[C@@H](CCC(=O)O)C(=O)O)cc1` [methotrexate]?
growth inhibition in HT medium [4]: greatly attenuated; Type of inhibition observed ([3]; S. maltophilia DHFR): competitive (slow-; k1 ([3]; S. maltophilia DHFR, calculated by using Eqn. 3): 6.17e+07 M⁻¹ s⁻¹; rate constant k2 ([3]; S. maltophilia DHFR, pH 8.0): 0.0011 s⁻¹; p16 methylation pattern [5]: reversal of hypermethylation was observed

With `Nc1nc(=O)c2c([nH]1)NCC(CNc1ccc(C(=O)N[C@@H](CCC(=O)O)C(=O)O)cc1)=N2` [DHF, 7,8-dihydrofolate] as the molecule, how does the Km ([3]; pH 8.0) read?
Its Km is 1.8 µM.

With `O=C(O[C@@H]1Cc2c(O)cc(O)cc2O[C@@H]1c1ccc(O)c(O)c1)c1cc(O)c(O)c(O)c1` [ECG, (−)-epicatechin gallate] as the molecule, how does the “inhibition of DHFR activity” value [1] read?
Its value is “potent inhibitor”.

And the k5 [1]?
The k5 was 0.11 min⁻¹.

And the k5/k6 [1]?
The k5/k6 was 7.1 ratio.

What about the k6 [1] of the same molecule?
The k6 was 0.015 min⁻¹.

And the Ki ([1]; KI*, equilibrium binding to enzyme-NADPH complex)?
The Ki was 6.55 nM.

And the Ki ([1]; KI, initial binding to enzyme-NADPH complex, pH 7.58, 25° C.)?
Its Ki is 51.3 nM.

And the “inhibition of rHDHFR activity” value [2]?
The value was “potent inhibitors”.
